Results taken from paper PMC7979765, “trans-Translation inhibitors bind to a novel site on the ribosome and clear Neisseria gonorrhoeae in vivo” (Nature Communications, 2021).
≈ marks a conversion by molar mass, not a printed value. Where “and” joins values, the source holds several entries; their conditions need not be identical. Equal values may be shown once. Entries after “also recorded” stand apart in the source; their conditions may differ. Read-outs that look alike come from different tables or passages of the source.

Legend:
[1] = tested on: Sodium Channel, Site 2; test: Receptor Profiling 279510; type: binding, rat; conditions: 10 μM
Description: (§1) Several in vitro selectivity assays were performed at Eurofins Discovery Services using established methods and controls that behaved as expected (Supplementary Tables 5 and 6). […] For receptor panel profiling, MBX-4132 was evaluated at 10 μM and activity of >50% (agonist or antagonist; note that negative % inhibition indicates agonism) was scored as active.

[2] = Liver microsome stability, human; type: in vitro ADME
Description: To examine potential for first-pass metabolism of analogs in the liver, the stability of analogs in the presence of liver microsome preparations (Eurofins Discovery for human, dog and rat; Xenotech for mouse) was measured using the method of Kuhnz, et al.[50]. for murine studies and Oback for the dog, human and rat studies. The amount of parent compound remaining after incubation with microsomes in the presence of NADPH over a 30 min time range was measured using a reverse-phase liquid chromatography/mass spectroscopy method that was customized for each compound. Half-lives were calculated using linear regression analysis of several time points.

[3] = tested on: Caco-2 cells; test: Caco-2 permeability; type: in vitro ADME, human
Description: To evaluate the potential for oral bioavailability, the ability of prioritized compounds to permeate a monolayer of Caco-2 (ATCC HTB-37) intestinal epithelial cells was determined as described. Caco-2 permeability values (Papp) > 1 × 10^−6 cm/sec are predictive of oral bioavailability.

[4] = biological target: T1, Endothelin ETA (Homo sapiens, UniProt P25101); test: Receptor Profiling 224010; type: binding
T1 construct: purchased Eurofins Discovery Services (Panlabs safety panel)
Description: as §1

[5] = tested on: Haemophilus influenzae; test: MIC, microbroth dilution; type: cell-based
[6] = biological target: T2, Transporter, Norepinephrine (NET) (Homo sapiens, UniProt P23975); test: Receptor Profiling 204410; type: binding
T2 construct: purchased Eurofins Discovery Services 204410
Description: as §1

[7] = tested on: translation; test: In vitro translation assay (full-length nano-luciferase gene); type: biochemical, Escherichia coli; conditions: for % of translation activity: 0 uM = 100
[8] = Serum shift of MIC (+/- 10% fetal bovine serum)
[9] = tested on: N. gonorrhoeae ATCC 49226; test: Time-kill assay

T2 sequence (P23975 whole entry): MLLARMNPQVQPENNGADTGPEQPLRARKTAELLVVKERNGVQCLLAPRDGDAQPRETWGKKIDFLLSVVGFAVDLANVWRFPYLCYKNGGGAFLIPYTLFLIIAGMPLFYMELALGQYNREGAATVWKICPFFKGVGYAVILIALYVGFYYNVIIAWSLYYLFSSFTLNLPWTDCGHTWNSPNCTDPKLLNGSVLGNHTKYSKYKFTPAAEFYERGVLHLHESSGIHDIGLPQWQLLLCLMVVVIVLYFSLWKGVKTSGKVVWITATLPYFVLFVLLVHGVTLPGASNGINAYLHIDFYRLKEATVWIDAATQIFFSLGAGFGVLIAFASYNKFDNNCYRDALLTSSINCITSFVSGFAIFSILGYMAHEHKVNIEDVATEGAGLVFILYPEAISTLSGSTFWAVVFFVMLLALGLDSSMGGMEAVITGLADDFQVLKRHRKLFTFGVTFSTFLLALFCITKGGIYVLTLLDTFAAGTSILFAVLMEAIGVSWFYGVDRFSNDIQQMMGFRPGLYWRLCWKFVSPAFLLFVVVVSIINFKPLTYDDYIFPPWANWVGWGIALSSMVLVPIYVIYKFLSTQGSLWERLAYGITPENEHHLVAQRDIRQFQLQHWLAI
T1 sequence (P25101 21-427): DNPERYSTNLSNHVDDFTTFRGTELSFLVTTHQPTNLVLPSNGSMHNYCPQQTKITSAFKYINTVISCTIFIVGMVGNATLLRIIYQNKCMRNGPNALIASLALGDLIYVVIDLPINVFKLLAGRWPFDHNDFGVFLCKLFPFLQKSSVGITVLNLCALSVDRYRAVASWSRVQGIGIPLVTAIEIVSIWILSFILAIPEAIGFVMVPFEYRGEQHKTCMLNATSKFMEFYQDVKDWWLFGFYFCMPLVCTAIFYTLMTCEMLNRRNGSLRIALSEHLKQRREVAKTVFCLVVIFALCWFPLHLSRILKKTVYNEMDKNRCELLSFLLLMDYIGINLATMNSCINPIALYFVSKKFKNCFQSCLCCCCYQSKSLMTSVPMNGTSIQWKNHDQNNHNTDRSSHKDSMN

## O=C(Nc1nnc(-c2ccc(F)cc2)o1)N1CCc2ccccc2C1 [MBX-4132]
[1]
  % inhibition: 21%
[2]; Reported value, Eurofins
  Microsomal stability (t½, min) Human: >120 min
[2]; human, liver microsomes, read-out: Microsomal Stability (t1/2; min) Hum.
  half-life: > 2 h
[3]; A to B
  Caco-2 Papp (A to B): 11 x 10^-6 cms^-1
[3]; A→B, Replicate 1/2, Eurofins
  Caco-2 (Papp; x 10-6 cms-1) A→B: 9.9 x 10-6 cms-1
[3]; B→A, Replicate 1/2, Eurofins
  Caco-2 (Papp; x 10-6 cms-1) B→A: 8.19 x 10-6 cms-1
[4]
  inhibition at 10 µM: -15%
[5]; Haemophilus influenzae ATCC 35056, replicates
  MIC: 17 µg/mL (≈ 50.2 µM)
[5]; Haemophilus influenzae, ATCC35056, Haemophilus influenzae ATCC 35056, replicates, read-out: MIC
  MIC: 17 µg/mL (≈ 50.2 µM)
[5]; Haemophilus influenzae, ATCC35056, strain ATCC 35056, read-out: MIC
  MIC: 17.5 µg/mL (≈ 51.7 µM)
[6]
  inhibition at 10 µM: 6%
[7]; [MBX-4132] 0.01 uM
  % of translation activity: 94% and 99%
[7]; [MBX-4132] 0.1 uM
  % of translation activity: 98% and 102%
[7]; [MBX-4132] 1 uM
  % of translation activity: 92% and 103%
[7]; [MBX-4132] 2 uM
  % of translation activity: 86% and 97%
[7]; [MBX-4132] 10 uM
  % of translation activity: 106% and 98%
[7]; [MBX-4132] 20 uM
  % of translation activity: 97% and 96%
[7]; [MBX-4132] 50 uM
  % of translation activity: 93% and 99%
[7]; full-length nano-luciferase gene control
  inhibition of translation in vitro (in words): did not inhibit translation; also recorded: does not inhibit translation
[8]; Average Value
  Serum shift (fold): 16 fold
[8]; Ratio of MIC +/- 10% fetal bovine serum added
  serum Shift: 16
[8]; Replicate 1/2
  Serum shift (fold): 16 fold
[9]; 1X MIC, 0 h
  AVE CFU/ml: 9800000 CFU/ml
[9]; 1X MIC, 1 h
  AVE CFU/ml: 7.80E+06 CFU/ml and 7800000 CFU/ml
  CFU/mL, replicates 1-3: 7400000 CFU/mL and 6800000 CFU/mL and 9200000 CFU/mL
[9]; 1X MIC, 2 h
  AVE CFU/ml: 3.60E+06 CFU/ml and 3600000 CFU/ml
  CFU/mL, replicates 1-3: 3800000 CFU/mL and 3600000 CFU/mL and 3400000 CFU/mL
[9]; 1X MIC, 4 h
  AVE CFU/ml: 5133333 CFU/ml and 5.13E+06 CFU/ml
  CFU/mL, replicates 1-3: 5800000 CFU/mL and 5200000 CFU/mL and 4400000 CFU/mL
[9]; 1X MIC, 6 h
  AVE CFU/ml: 6200000 CFU/ml and 6.20E+06 CFU/ml
  CFU/mL, replicates 1-3: 6000000 CFU/mL and 5800000 CFU/mL and 6800000 CFU/mL
[9]; 1X MIC, 8 h
  AVE CFU/ml: 1173333 CFU/ml
[9]; 1X MIC, 8 h, listed as 4132
  AVE CFU/ml: 1.17E+06 CFU/ml
  CFU/mL, replicates 1-3: 1120000 CFU/mL and 1160000 CFU/mL and 1240000 CFU/mL
[9]; 1X MIC, 24 h
  AVE CFU/ml: 6866667 CFU/ml and 6.87E+06 CFU/ml
  CFU/mL, replicates 1-3: 7400000 CFU/mL and 6400000 CFU/mL and 6800000 CFU/mL
[9]; 4X MIC, 0 h
  AVE CFU/ml: 9800000 CFU/ml
[9]; 4X MIC, 1 h
  AVE CFU/ml: 5.73E+06 CFU/ml and 5733333 CFU/ml
  CFU/mL, replicates 1-3: 6400000 CFU/mL and 5600000 CFU/mL and 5200000 CFU/mL
[9]; 4X MIC, 2 h
  AVE CFU/ml: 3.73E+06 CFU/ml and 3733333 CFU/ml
  CFU/mL, replicates 1-3: 3600000 CFU/mL and 3400000 CFU/mL and 4200000 CFU/mL
[9]; 4X MIC, 4 h
  AVE CFU/ml: 2733333 CFU/ml and 2.73E+06 CFU/ml
  CFU/mL, replicates 1-3: 2400000 CFU/mL (2×) and 3400000 CFU/mL
[9]; 4X MIC, 6 h
  AVE CFU/ml: 2866667 CFU/ml and 2.87E+06 CFU/ml
